Laboratory results from patent publication US7939546B2, “Quinoline derivatives for modulating DNA methylation” (SuperGen, Inc., priority 2007, dated 2011).

Tests used:
p16 = experiment: RT-PCR assay for gene expression (p16) in RKO and HCT-116 cells; format: cell-based; conditions: for RNA expression levels of p16: FIG. 1, varying concentrations, forty eight hour incubation
Protocol: RKO and HCT-116 cells were treated with Cpd. AAA, Cpd. BBB, and Cpd. CCC at varying concentrations. After a forty eight hour incubation cells were harvested for RNA isolation using the Qiagen RNeasy Mini kit. RNA was quantified using a spectrophotometer and 1 μg of RNA was used for cDNA synthesis using the Bio-Rad iScript cDNA Synthesis Kit. RTPCR was performed using SYBER GreenER qPCR SuperMix for iCycler according to the manufacturer's protocol. Primer sequences used are as follows [NT] (SEQ ID NO: 2) and [NT] (SEQ ID NO: 3), MLH-1 [NT] (SEQ ID NO: 4) and [NT] (SEQ ID NO:5), [NT] (SEQ ID NO: 6) and [NT] (SEQ ID NO: 7), GAPDH [NT] (SEQ ID NO:8) and [NT] (SEQ ID NO:9), and […] (SEQ ID NO: 10) and [NT] (SEQ ID NO:11). Samples were analyzed on the iQ5 Multicolor Real-Time PCR Detection System from Bio-Rad. Data analysis was performed using the iQ5 Optical System Software version 2.0, Threshold Cycle (CT) and CT mean values were determined from this software. For each sample there are at least four reactions, two for p16 and two for GAPDH the housekeeping control. The mean CT value from the GAPDH reactions was subtracted from each of the corresponding p16 samples CT giving a value termed Delta CT. Then the Delta CT for the untreated p16 sample is subtracted from all treated Delta CT values giving another value termed Delta Delta CT. […] The duplicate samples are averaged together to get an average Relative Expression for each treatment and the Standard Error is calculated. Relative expression values for p15 and MLH-1 were calculated using the same method. […] AAA, Cpd. BBB, and Cpd. […] Cpd. […] Because the higher levels of p16 seemed to have less effect in causing re-expression of p16 there may be some issues with drug solubility or toxicity at the higher concentrations tested.

HCT-116 = experiment: Cell-based growth assay (Cell-Titer-Glo), HCT-116; conditions: Homo sapiens; HCT-116, 96 hours; read-out: IC50 Values CTG
Protocol: (§1) Cell culture-based assays can be used to evaluate the ability of compounds of the invention to inhibit one or more cellular activities, such as cancer cell growth and/or survival. Numerous cancer cell lines can be obtained from the American Type Culture Collection (ATCC) and other sources. Briefly, cells are seeded into 96-well, tissue-culture treated, opaque white plates (Thermo Electron, Vantaa, Finland), at between 5000 and 10000 cells per well, depending on the speed of cell proliferation, in 100 μl of appropriate growth medium (determined by the ATCC). Cells are then exposed to the appropriate concentration of drug or an equal amount of DMSO (drug diluent) and allowed to grow in its presence for 96 hours. Following this, 100 μl of Cell-Titer-Glo (CTG) reagent (Promega, Inc., Madison, Wis.) is added to each well. Plates are then shaken for 2 minutes at room temperature to allow for cell lysis and incubated for 10 minutes at room temperature to stabilize the luminescent signal. Similar to the Kinase-Glo assay reagent from Promega, this reagent contains both luciferase enzyme and its substrate luciferin. Luciferase, activated by ATP in the cell lysate, catalyzes the conversion of luciferin to oxyluciferin, a reaction which produces light. […]

RKO = experiment: Cell-based growth assay (Cell-Titer-Glo), RKO; conditions: Homo sapiens, 96 hours, read-out: IC50 Values CTG
Protocol: Cell culture-based assays can be used to evaluate the ability of compounds of the invention to inhibit one or more cellular activities, such as cancer cell growth and/or survival. Numerous cancer cell lines can be obtained from the American Type Culture Collection (ATCC) and other sources. Briefly, cells are seeded into 96-well, tissue-culture treated, opaque white plates (Thermo Electron, Vantaa, Finland), at between 5000 and 10000 cells per well, depending on the speed of cell proliferation, in 100 μl of appropriate growth medium (determined by the ATCC). Cells are then exposed to the appropriate concentration of drug or an equal amount of DMSO (drug diluent) and allowed to grow in its presence for 96 hours. Following this, 100 μl of Cell-Titer-Glo (CTG) reagent (Promega, Inc., Madison, Wis.) is added to each well. Plates are then shaken for 2 minutes at room temperature to allow for cell lysis and incubated for 10 minutes at room temperature to stabilize the luminescent signal. Similar to the Kinase-Glo assay reagent from Promega, this reagent contains both luciferase enzyme and its substrate luciferin. Luciferase, activated by ATP in the cell lysate, catalyzes the conversion of luciferin to oxyluciferin, a reaction which produces light. The amount of light produced is proportionate to the amount of ATP in the cell lysate, which is itself proportional to cell number and gives an index of cellular proliferation.

Panc-1 = experiment: Cell-based growth assay (Cell-Titer-Glo), Panc-1; conditions: Homo sapiens; Panc-1, 96 hours; read-out: IC50 Values CTG
Protocol: as §1

IC50 (HCT-116) [nM] | IC50 (Panc-1) [nM] | Compound | RNA expression levels of p16 (p16) | IC50 (RKO) [nM] | re-expression of p16 over no treatment (p16; concentration of 0.11 M (so in the source))
670 | 1000 | Cl.Nc1cc(Sc2ccc(NC(=O)c3ccc(Nc4ccnc5ccccc45)cc3)cc2)ccn1 [Cpd. BBB, N-[4-(2-aminopyridin-4-ylthio)phenyl]-4-(quinolin-4-ylamino)benzamide hydrochloride] | increase the RNA expression levels of p16 | 740 | –
– | – | Cl.O=C(Nc1ccc(Sc2ccnc(O)c2)cc1)c1ccc(Nc2ccnc3ccccc23)cc1 [Cpd. CCC, N-[4-(2-hydroxypyridin-4-ylthio)phenyl]-4-(quinolin-4-ylamino)benzamide hydrochloride] | increase the RNA expression levels of p16 | 6600 | –
6150 | 1800 | Cl.O=C(Nc1ccc(Sc2ccncc2)cc1)c1ccc(Nc2ccnc3ccccc23)cc1 [Cpd. AAA, N-[4-(pyridin-4-ylthio)phenyl]-4-(quinolin-4-ylamino)benzamide hydrochloride] | increase the RNA expression levels of p16 | 1220 | greatest re-expression of p16
